The series in a line: Circular dichroism spectroscopy. The class given is physicochemical. To be noted: CD, 50% (v/v) TFE. A digest of the protocol: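 Secondary structure of peptides dissolved in water at 0.3–0.5 mg/mL was assessed by CD. Spectra were recorded from 180 to 260 nm at room temperature in a 0.1 cm quartz cuvette; water and 50% (v/v) TFE conditions were compared.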

Ends that are not written are not given here.

On to “TVGGLVKWILKTVKKFA-NH2 [STIP3-29, TVGGLVKWILKTVKKFA-NH2]”, for which the “α helicity (%)” value was 61%.

Source of the values: patent US12370235B2, “Synthetic, non-natural antimicrobial peptides inspired by Staphylococcus auricularis delta toxin” (University of Saskatchewan, priority 2021, dated 2025).
